# Reference: patent EP4778929A1, “NOVEL TYPE I TOPOISOMERASE INHIBITOR, AND PREPARATION METHOD THEREFOR AND USE THEREOF” (priority 2023, dated 2025)
# Like-named read-outs stand apart in the source and are kept apart here.
# Columns and labels:
# topoisomerase I (Topo I) = target: T1, topoisomerase I (Topo I) (Homo sapiens, UniProt P11387); experiment: Topo I enzyme-inhibitory activity by agarose-gel electrophoresis (plasmid relaxation); assay type: biochemical
# T1 sequence (P11387 1-765): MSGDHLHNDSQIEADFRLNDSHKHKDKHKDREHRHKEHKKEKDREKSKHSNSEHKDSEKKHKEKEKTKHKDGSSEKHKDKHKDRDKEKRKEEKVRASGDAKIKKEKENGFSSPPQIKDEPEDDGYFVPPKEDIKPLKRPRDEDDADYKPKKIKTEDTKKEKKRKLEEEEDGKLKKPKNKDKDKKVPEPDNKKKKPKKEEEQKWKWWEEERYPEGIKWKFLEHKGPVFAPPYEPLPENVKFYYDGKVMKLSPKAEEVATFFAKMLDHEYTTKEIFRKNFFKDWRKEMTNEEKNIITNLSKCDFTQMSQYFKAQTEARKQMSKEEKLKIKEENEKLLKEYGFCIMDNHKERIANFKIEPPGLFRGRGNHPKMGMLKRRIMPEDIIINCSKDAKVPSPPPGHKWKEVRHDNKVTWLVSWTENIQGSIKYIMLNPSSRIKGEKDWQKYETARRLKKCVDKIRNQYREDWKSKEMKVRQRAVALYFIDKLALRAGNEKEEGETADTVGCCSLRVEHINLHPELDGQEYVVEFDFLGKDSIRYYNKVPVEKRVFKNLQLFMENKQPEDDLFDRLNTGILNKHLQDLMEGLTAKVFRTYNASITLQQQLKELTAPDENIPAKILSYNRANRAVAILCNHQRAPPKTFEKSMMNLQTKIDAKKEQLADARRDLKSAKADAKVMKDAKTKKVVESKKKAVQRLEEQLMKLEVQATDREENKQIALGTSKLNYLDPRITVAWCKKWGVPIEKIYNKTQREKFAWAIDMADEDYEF
# In short: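 Supercoiled pNO1 plasmid (0.5 µg) was relaxed by Topo I (0.75 U) in 20 mM Tris-HCl pH 7.5, 200 mM NaCl, 0.25 mM EDTA, 5 % glycerol, 5 % DMSO final, for 30 min at 37 °C. Supercoiled band intensity on agarose gel was normalized to no-enzyme and vehicle controls. IC50 from a four-parameter logistic fit.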
# HCT116 cells = experiment: Inhibition of cell proliferation by CTG (CellTiter-Glo) luminescence assay; assay type: cell-based; details: Homo sapiens, read-out: HCT116, IC50
# In short: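 Nine-point 1:3 dilutions applied to HCT116 cells (2 000/well, McCoy's 5a + 10 % FBS) for 72 h at 37 °C, final DMSO 0.25 %. Viability read by CellTiter-Glo luminescence; % inhibition versus DMSO controls fitted to four-parameter logistic for IC50.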
# [1] = system: Human colon cancer CR00090 cells; experiment: CR00090 human colon cancer model (subcutaneous); assay type: in vivo, NPSG mice; details: day 28 post-treatment, 5 mg/kg, IV, BIW×4W; for tumor volume: vehicle control 1093 mm^3
# Procedure: Test Example 5: Pharmacodynamic Evaluation of Compound 117, Compound 250, and Compound 253 in the CR00090 Human Colon Cancer Model
# Human colon cancer CR00090 cells were thawed, counted, and mixed with Matrigel at a 1:1 ratio. Then, 0.1 mL (5×10^5 cells) of CR00090 cells were subcutaneously inoculated into the right dorsal region near the upper forelimb of each mouse (NPSG mice, female, 6-8 weeks old). Treatment was initiated when the average tumor volume reached approximately 84 mm^3. Tumor volume was measured twice weekly. At the end of the experiment, the tumor growth inhibition rate (TGI) was calculated as: TGI (%) = [1 - (average tumor volume at the end of treatment in a particular group - average tumor volume at the start of treatment in that group) / (average tumor volume at the end of treatment in the vehicle control group - average tumor volume at the start of treatment in the vehicle control group)] × 100%.
# (§1) Experimental Groups and Dosing Regimen:
# • 1, Vehicle control group • 2, Compound 117, 5 mg/kg, IV, BIW×4W • 3, Compound 250, 5 mg/kg, IV, BIW×4W • 4, Compound 253, 5 mg/kg, IV, BIW×4W
# in vivo = details: male, CD-1, mouse
# Procedure: Test Example 3. Pharmacokinetic Study for Determining Compound Concentrations in Mice by LC-MS/MS
# Principle: LC-MS/MS is used to quantify the plasma concentrations of the test article at successive time points, generating an in-vivo pharmacokinetic profile.
# Procedure: The test compound was dissolved in DMSO to prepare a 10 mg/mL stock solution. This stock was further diluted to 1 mg/mL with a vehicle consisting of 10 % DMSO + 10 % Solutol HS-15 + 80 % saline. Male CD-1 mice (JH Laboratory Animal Co., LTD) were employed; six animals were assigned per compound group. […] Serial blood samples (~50 µL whole blood, K2EDTA anticoagulant) were collected at 0.083, 0.25, 0.5, 1, 2, 4, 8 and 24 h (three mice per time point in a crossover design). Blood was centrifuged at 6 000 g for 5 min at 4 °C; plasma was harvested and stored at -70 °C until analysis. Plasma drug concentrations were determined by LC-MS/MS.
# Calibration Curve and QC Preparation: Working solutions were prepared by dilution with MeOH:H2O (1:1). For each calibration or QC level, 3 µL of working solution was spiked into 57 µL of blank mouse plasma.
# Sample Processing: To 30 µL of plasma was added 200 µL of methanol containing the internal standard (propranolol, 40 ng mL^-1). After vortex-mixing for 1 min, the mixture was centrifuged at 12 000 rpm for 10 min. A 100 µL aliquot of the supernatant was transferred to a clean plate for injection.
# Pharmacokinetic Analysis: Concentration-time data were analyzed with WinNonlin 8.2 using a non-compartmental approach to derive PK parameters including Cmax, Tmax, AUC and terminal elimination half-life (t1/2). AUC was calculated by the linear-up/log-down trapezoidal method. Table 3. Pk parameters of compounds
# [2] = system: Human colon cancer HCT116 cells; experiment: Subcutaneous xenograft model of human colon cancer HCT-116 cells; assay type: in vivo, BALB/c nude mice; details: day 21 post-treatment, 5 mg/kg, IV, BIW×3W; for tumor volume: vehicle control 1146 mm^3
# Procedure: Test Example 4. Pharmacodynamic Evaluation of Compound 2, Compound 250, and Compound 253 in a Subcutaneous Xenograft Model of Human Colon Cancer HCT-116 Cells in BALB/c Female Nude Mice
# Human colon cancer HCT116 cells were cultured in vitro as monolayers in McCoys 5a medium supplemented with 10% fetal bovine serum and 1% penicillin/streptomycin/amphotericin B at 37 °C in a 5% CO2 incubator. Cells were routinely passaged twice a week using trypsin-EDTA digestion. When cells reached 80%-90% confluence and the required cell number was achieved, cells were harvested. HCT116 cells (0.1 mL, 5×10^6 cells) were subcutaneously inoculated into the right dorsal region near the upper forelimb of each mouse (BALB/c nude mice, female, 6-8 weeks old). Treatment was initiated when the average tumor volume reached approximately 158 mm^3. Tumor volume was measured twice weekly. At the end of the experiment, the tumor growth inhibition rate (TGI) was calculated as: TGI (%) = [1 - (average tumor volume at the end of treatment in a particular group - average tumor volume at the start of treatment in that group) / (average tumor volume at the end of treatment in the vehicle control group - average tumor volume at the start of treatment in the vehicle control group)] × 100%.
# as §1
# • 1, Vehicle control group • 2, Compound 2, 5 mg/kg, IV, BIW×3W • 3, Compound 250, 5 mg/kg, IV, BIW×3W • 4, Compound 253, 5 mg/kg, IV, BIW×3W
# [3] = read-out: inhibition of topoisomerase I (Topo I) enzymatic activity, IC50; 0.75 U Topo I, pNO1 plasmid, 37 °C, 30 min; compounds listed by group (Group A / Group B)
# [4] = 0.75 U Topo I, pNO1 plasmid, 37 °C, 30 min; compounds listed by group (Group A / Group B); read-out: inhibition of topoisomerase I (Topo I) enzymatic activity, IC50
# [5] = HCT-116, 72 h incubation, CellTiter-Glo
compound,measurement,setting,value
CC[C@@]1(O)C(=O)OCc2c1cc1n(c2=O)Cc2c-1c(=O)c1cc(F)ccc1n2CCN1C2CCC1CC(F)(F)C2 [Example 187],IC50,topoisomerase I (Topo I); [3],0.2 to 0.5 µM
same,IC50,"HCT116 cells; HCT-116, 72 h",< 0.02 µM
CC[C@@]1(O)C(=O)OCc2c1cc1n(c2=O)Cc2c-1c(=O)c1cc(F)ccc1n2CCN1CCC(F)(F)CC1 [Example 190],IC50,topoisomerase I (Topo I); [3],< 0.2 µM
same,IC50,"HCT116 cells; HCT-116, 72 h",< 0.02 µM
CC[C@@]1(O)C(=O)OCc2c1cc1n(c2=O)Cc2c-1c(=O)c1cc(F)c(CN(C)C3CC3)cc1n2C1CC1 [Example 225],IC50,topoisomerase I (Topo I); [3],0.2 to 0.5 µM
same,IC50,"HCT116 cells; HCT-116, 72 h",< 0.02 µM
CC[C@@]1(O)C(=O)OCc2c1cc1n(c2=O)Cc2c-1c(=O)c1cc(F)c(CNC3CC3)cc1n2C1CCCC1 [Example 227],IC50,topoisomerase I (Topo I); [3],0.2 to 0.5 µM
same,IC50,"HCT116 cells; HCT-116, 72 h",< 0.02 µM
CC[C@@]1(O)C(=O)OCc2c1cc1n(c2=O)Cc2c-1c(=O)c1cc(F)c(CN(C)C3CC3)cc1n2C1CCCC1 [Example 228],IC50,topoisomerase I (Topo I); [4],0.2 to 0.5 µM
same,IC50,HCT116 cells; [5],< 0.02 µM
"CC[C@@]1(O)C(=O)OCc2c1cc1n(c2=O)Cc2c-1c(=O)c1cc(F)ccc1n2[C@@H]1CCN(C)C1 [Example 250, (S)-4-ethyl-8-fluoro-4-hydroxy-11-((R)-1-methylpyrrolidin-3-yl)-1,12-dihydro-14H-pyrano[3',4':6,7]indolizino[2,1-b] quinoline-3,6,14(4H,11H)-trione]",TGI,[1],80.0%
same,tumor volume,[1],286 mm^3
same,IC50,HCT116 cells; [5],< 0.02 µM
same,bioavailability,in vivo,35.9%
same,AUC(0-t),"in vivo; iv, 2 mg/kg",543 ng·h/mL
same,Cmax,"in vivo; iv, 2 mg/kg",1210 ng/mL
same,clearance,"in vivo; iv, 2 mg/kg",62.9 mL/min/kg
same,half-life,"in vivo; iv, 2 mg/kg",17.9 min
same,AUC(0-t),"in vivo; po, 20 mg/kg",1930 ng·h/mL
same,Cmax,"in vivo; po, 20 mg/kg",1120 ng/mL
same,Tmax,"in vivo; po, 20 mg/kg",30 min
same,half-life,"in vivo; po, 20 mg/kg",231 min
same,TGI,[2],83.1%
same,tumor volume,[2],326 mm^3
"CC[C@@]1(O)C(=O)OCc2c1cc1n(c2=O)Cc2c-1c(=O)c1cc(F)ccc1n2[C@@H]1CCN(C2CCC2)C1 [Example 253, (S)-4-ethyl-8-fluoro-4-hydroxy-11-((R)-1-cyclobutylpyrrolidin-3-yl)-1,12-dihydro-14H-pyrano[3',4':6,7]indolizino[2,1-b]quinoline-3,6,14(4H,11H)-trione]",TGI,[1],76.3%
same,tumor volume,[1],323 mm^3
same,IC50,HCT116 cells; [5],< 0.02 µM
same,TGI,[2],80.6%
same,tumor volume,[2],351 mm^3
CC[C@@]1(O)C(=O)OCc2c1cc1n(c2=O)Cc2c-1c(=O)c1cc(F)c(N)cc1n2-c1ccc2c(c1)OC(F)(F)O2 [Example 354],IC50,topoisomerase I (Topo I); [3],< 0.2 µM
same,IC50,"HCT116 cells; HCT-116, 72 h",< 0.02 µM
CC[C@@]1(O)C(=O)OCc2c1cc1n(c2=O)Cc2c-1c(=O)c1cc(F)c(N)cc1n2-c1cc(OC)cc(C(C)C)c1 [Example 355],IC50,topoisomerase I (Topo I); [4],0.2 to 0.5 µM
same,IC50,HCT116 cells; [5],< 0.02 µM
